Reference: publication PMC6482291, “Anticonvulsant Activity of Pterostilbene in Zebrafish and Mouse Acute Seizure Tests” (Neurochemical Research, 2019)

Legend:
[1] = test system: 6 Hz-induced psychomotor seizures in mice; assay: 6 Hz psychomotor seizure threshold test; format: in vivo; conditions: 30 min before test, 95% confidence limits in brackets
Excerpt: Psychomotor (limbic) seizures were induced by transcorneal stimulation (6 Hz, 0.2 ms rectangular pulse, 3 s duration) generated by a Grass S48 stimulator coupled with a constant current unit CCU1 (both from Grass Technologies, West Warwick, RI, USA). Before stimulation a drop of ocular anesthetic, 1% tetracaine hydrochloride solution, was applied into the animals’ corneas. The electrodes were soaked in saline to ensure the good electrical contact. During the stimulation animals were restrained manually and immediately after the stimulation were placed in a Plexiglas box for observation of presence or absence of the psychomotor seizures. These seizures were characterized by immobilization or stun, often associated with rearing, forelimb clonus, twitching of vibrissae and elevated tail (Straub-tail), lasting at least 10 s from the stimulation. Lack of the above symptoms or their cessation within 10 s from the stimulation was considered as absence of seizure activity.
In the present study two 6 Hz-induced psychomotor seizure tests were performed: (1) the 6 Hz psychomotor seizure threshold test which employed stimulation at varied current intensities, and (2) the 6 Hz psychomotor seizure test with supramaximal stimulation at 32 mA and 44 mA.
In the 6 Hz psychomotor seizures threshold test, threshold current intensity (CS50 in mA) was estimated in groups of 20 animals according to the above mentioned up-and-down method.

mice [2] = assay: Grip-strength test; format: in vivo; conditions: for Neuromuscular strength: 30 min before test
Method: The acute effect of PTE on the skeletal muscles strength in mice was determined in the grip strength test. The apparatus for this test (BioSeb, Chaville, France) consisted of a steel wire grid (8 × 8 cm) connected to an isometric force transducer. Each mouse was lifted by tail and allowed to grasp the grid with its forepaws and then it was gently pulled backward until its released the grid. The maximal force in newtons (N) exerted by mouse before leaving the grid was recorded. The mean of three consecutive measurements for each animal was calculated and normalized to body weight (mN/g).
Experimental groups consisted of 12 animals. Results obtained in the grip-strength test were compared using one-way ANOVA followed by the Tukey’s post-hoc multiple comparison test.

[3] = test system: GABA-induced chloride currents; design: method as in PMID 24462176; conditions: cited from earlier work
mice [4] = assay: Chimney test; format: in vivo; conditions: for Impairment of motor coordination (percentage of animals): 30 min before test
Method: The chimney test was performed to evaluate influence of PTE on motor coordination in mice. During the test mice had to climb backwards up the plastic transparent cylinder (inner diameter 3 cm and length 30 cm) with gravelly inside. The inability of mice to escape from the cylinder within 60 s was considered as an motor impairment. Results obtained in the test were presented as percent of impaired mice in groups of 10–12 animals and were compared with the Fisher’s exact probability test.

[5] = test system: PTZ-induced epileptiform discharges in zebrafish larvae; assay: Electrographic discharge assessment (LFP recordings from optic tectum) in zebrafish larvae exposed to PTZ; format: in vivo, Danio rerio; conditions: 10 µM PTE, 2 h incubation, 20 mM PTZ, 20 min recording
Method: For local field potential (LFP) recordings, zebrafish larvae were incubated for 2 h, as described above. After incubation, larvae were exposed to vehicle or 20 mM PTZ for 5 min. Thereafter, larvae were immobilized in a thin layer of 2% low-melting-point agarose and the glass electrode (resistance […]) filled with artificial cerebrospinal fluid (124 mM NaCl, 2 mM KCl, 2 mM MgSO4, 2 Mm CaCl2, 1.25 mM KH2PO4, 26 mM NaHCO3, 10 mM glucose) was placed into the optic tectum (MultiClamp 700B amplifier, Digidata 1440A digitizer, Axon instruments, USA). Single recordings for each larva were performed for a period of 20 min. The discharges were analyzed according to the duration of spiking paroxysms and only those where the amplitude exceeded three times the background noise were taken into account. The data were analyzed with the aid of Clampfit 10.2 software (Molecular Devices Corporation, USA).

zebrafish larvae = assay: Toxicological assessment (maximum tolerated concentration) in zebrafish larvae; format: in vivo, Danio rerio; conditions: 4 dpf larvae, scored after 2 and 18 h of exposure; highest concentration without death or signs of toxicity
Method: Maximum tolerated concentration (MTC) was evaluated prior to further experiments. Briefly, 4 dpf zebrafish larvae (n = 12/group) were incubated with a range of PTE doses at 28.5 °C, for 18 h. The following parameters were scored after 2 and 18 h of exposure: touch response, posture, edema, morphology, signs of necrosis, swim bladder and heartbeat.

[6] = test system: PTZ-induced seizure-like behavior in zebrafish larvae; assay: Larval zebrafish PTZ seizure assay, locomotor activity tracking; format: in vivo, Danio rerio; conditions: 10 µM PTE, 2 h incubation, 20 mM PTZ; vs vehicle + PTZ
Method: The locomotor activity of larvae was assessed as previously described. A single 117 hpf zebrafish larvae was placed in a 48-well plate (one larva per well) filled with 200 µl of vehicle or PTE solution (10 µM). Subsequently, larvae were incubated for 2 h, at 28.5 °C. Next, 100 µl of vehicle or PTZ was added to each well. Within 5 min, plates were positioned in an automated tracking device (ZebraBox, Viewpoint, Lyon, France) and larvae were tracked for 30 min, with a 5 min integration interval. All measurements were performed at the same daytime period. The […] distance (in millimeters) covered by each larva was recorded. Three independent experiments were done (n = 12/group) and the data were pooled together. […] The data were normalized against PTZ values.

COc1cc(/C=C/c2ccc(O)cc2)cc(OC)c1 [PTE, trans-3,5-dimethoxy-4′-hydroxy-trans-stilbene]
CS50 (psychomotor seizure threshold) ([1]; PTE 100 mg/kg ip, p < 0.01): 15.56 (14.18–17.08) mA
CS50 (psychomotor seizure threshold) ([1]; PTE 200 mg/kg ip, p < 0.001): 19.28 (17.15–21.66) mA
Neuromuscular strength (mice [2]; PTE 50 mg/kg ip): 30.34 ± 1.16 mN/g
Neuromuscular strength (mice [2]; PTE 100 mg/kg ip): 29.14 ± 0.95 mN/g
Neuromuscular strength (mice [2]; PTE 200 mg/kg ip): 28.76 ± 2.16 mN/g
Neuromuscular strength (mice [2]; PTE 400 mg/kg ip): 30.39 ± 2.17 mN/g
Neuromuscular strength (mice [2]; PTE 600 mg/kg ip): 30.19 ± 0.97 mN/g
Neuromuscular strength (mice [2]; PTE 800 mg/kg ip): 31.12 ± 1.44 mN/g
influence on muscular strength (mice [2]; PTE 50 to 800 mg/kg ip): did not significantly influence
effect on GABA-induced chloride currents [3]: enhances
Impairment of motor coordination (percentage of animals) (mice [4]; PTE 50 mg/kg ip): 0%
Impairment of motor coordination (percentage of animals) (mice [4]; PTE 100 mg/kg ip): 0%
Impairment of motor coordination (percentage of animals) (mice [4]; PTE 400 mg/kg ip): 0%
Impairment of motor coordination (percentage of animals) (mice [4]; PTE 600 mg/kg ip): 0%
influence on motor coordination (mice [4]; PTE 50–800 mg/kg ip): did not significantly influence
mean duration of ictal-like discharges [5]: statistically significant reduction
number of epileptiform discharges in the zebrafish brain ([5]; vs vehicle): significantly reduced
total duration of epileptiform discharges in the zebrafish brain ([5]; vs vehicle): significantly reduced
Maximum tolerated concentration (MTC) (zebrafish larvae): 10 µM
PTZ-induced locomotor activity in zebrafish larvae [6]: significantly reduced
